Assay results from patent US20030100548A1, “Arylpiperazines and their use as metallaproteinase inhibiting agents (mmp)” (priority 2000, published 2003).

Compound: O=S(=O)(CC(CS)Cc1ccccc1)N1CCN(c2ccc(F)cc2)CC1 (stereo not shown) [Example 1, N-(4-fluorophenyl)-N′-(2-benzyl-3-mercaptopropane-1-sulphonyl)-piperazine]
- melting point: 73 °C
